In patent US20070014739A1, “Compositions and methods for controlling biofilms and bacterial infections” (priority 2005, published 2007):

What was measured:
S. mutans 25175 = assay: Biofilm growth inhibition in 1 mL polycarbonate tubes; format: cell-based; conditions: Streptococcus mutans, 40 μg/mL
[1] = Bladder concentrations in rats (pharmacokinetic study); conditions: rat, in vivo, po, 50 mg/kg
Protocol: Pharmacokinetic studies of asiatic acid and madecassic acid in rats were performed separately. Asiatic acid and madecassic acid were evaluated at 50 mg/kg (oral). Two animals were assigned to the each group. Prior to dosing, a baseline blood sample was taken from each animal. At time zero for asiatic acid and madecassic acid, a single bolus dose in 50% Labrasol (Gattefosse) was given to each animal. Bladders were analyzed at 24 hours. Concentrations of both asiatic acid and madecassic acid in the bladder were approximately 30 μg/g at 24 hours.

[2] = tested on: Clinical isolates of P. aeruginosa from cystic fibrosis patients; assay: Detachment of mature biofilms on peg lids, crystal violet; format: cell-based; conditions: 5 ug/ml, approximately 40 hours; eighteen clinical isolates; compared to negative controls
Protocol: Clinical isolates of P. aeruginosa from cystic fibrosis patients were passed twice on tryptic soy agar with 5% sheep blood after retrieval from −80° C. and then grown overnight in CAMHB. After dilution of a culture to 0.5 McFarland in broth medium, 100 μl was transferred in triplicate to wells of a flat-bottom 96-well microtiter plate. Bacterial biofilms were formed by immersing the pegs of a modified polystyrene microtiter lid into this biofilm growth plate, followed by incubation at 37° C. for 20 hours with no movement.
Peg lids were rinsed three times in sterile water, placed onto flat-bottom microtiter plates containing biofilm inhibitors at 5 ug/ml in 100 μl of CAMHB per well and incubated for approximately 40 hours at 37° C.
Pegs were rinsed, placed in a 0.1% (wt/vol) crystal violet solution for 15 min, rinsed again, and dried for several hours. To solubilize adsorbed crystal violet, pegs were incubated in 95% ethanol (150 μl per well of a flat-bottom microtiter plate) for 15 min. The absorbance was read at 590 nm on a plate reader. The wells containing asiatic acid were compared to negative controls. Negative controls were prepared as stated above but without asiatic acid.

[3] = tested on: P. aeruginosa (ATCC 27853); assay: Antibacterial effect (MIC), NCCLS procedures; format: cell-based; conditions: Pseudomonas aeruginosa, ATCC27853; studied at 64 μg/mL; read-out: MIC (minimal inhibitory concentration)
Protocol: (§1) Using the appropriate NCCLS procedures, the antibacterial effect of asiatic acid on Haemophilus influenzae (ATCC 10211), E. coli (ATCC 25922), and P. aeruginosa (ATCC 27853) was studied at 64 μg/mL.

E. coli (ATCC 25922) = assay: Antibacterial effect (MIC), NCCLS procedures; format: cell-based; conditions: Escherichia coli, ATCC25922; studied at 64 μg/mL; read-out: MIC (minimal inhibitory concentration)
Protocol: as §1

[4] = tested on: Haemophilus influenzae (ATCC 10211); assay: Antibacterial effect (MIC), NCCLS procedures; format: cell-based; conditions: ATCC10211, studied at 64 μg/mL, read-out: MIC (minimal inhibitory concentration)
Protocol: as §1

E. coli UT189[pCOMGFP] = assay: Biofilm pods (IBCs) in bladders of infected mice, intravesical compound, confocal microscopy; format: in vivo, Escherichia coli; conditions: vs controls
Protocol: The procedures in this example has been previously reported by Justice, S. et al. Differentiation and development pathways of uropathogenic Escherichia coli in urinary tract pathogenesis. PNAS, 2004, 101(5), p. 1333-1338. Briefly, E. coli UT189[pCOMGFP] was prepared after retrieval from frozen stocks by inoculating appropriately in LB medium statically for approximately 20 hours. Cells were harvested and suspended in 1 ml of PBS. Cells were diluted appropriately to achieve approximately a 10^8 CFU or 10^7 CFU input into C3H/HeN mice (2 mice per group).
Mice were deprived of water for approximately two hours. In experiment 1, all mice were anesthetized with 0.15 cc ketamine cocktail. In experiment 2, all mice were anesthetized with isofluorane. In experiment 1, urine was dispelled from the bladders and approximately 40 μg/ml of test compound or an appropriate amount of ethanol as control was introduced into the bladders via catheterization of the urethra using a tubing coated tuberculin syringe. 30 minutes was allowed to elapse. In experiment 2, bladders were not pre-incubated with test compounds. Bladders were then expelled and an inoculum of 10^8 CFU (Experiment 1) or 10^7 CFU (Experiment 2) of E. coli containing 40 μg/ml of test compound or equivalent amount of ethanol as controls were introduced into the bladders as indicated above.
In experiment 1 five hours elapsed and in experiment 2 six hours elapsed, and then mice were anesthetized and sacrificed appropriately. The bladders were removed, bisected, stretched, and fixed in 3% paraformaldehyde for 1 hour at room temperature. Bladders were then permeabilized in 0.01% Triton/PBS for 10 minutes and counter stained with TOPRO3 (Molecular Probes) for 10 minutes for visualization by confocal microscopy. Bladders were mounted on Prolong antifade (Molecular Probes).

[5] = tested on: E. coli clinical strain UT189; assay: Inhibition of biofilm formation, crystal violet, 96 well plates; format: cell-based; conditions: Escherichia coli, compared to the controls, read-out: inhibited biofilm formation of the UT189 strain
Protocol: (§2) Biofilm inhibition experiments were conducted using an assay adapted from the reported protocol described in Pratt and Kolter, 1998, Molecular Microbiology, 30: 285-293; Li et al., 2001, J. Bacteriol., 183: 897-908. E. coli clinical strain UT189 was grown in LB in 96 well plates at room temperature for one or two days without shaking. E. coli laboratory strain JM109 was grown in LB plus 0.2% glucose in 96 well plates at room temperature for one day without shaking. To quantify the biofilm mass, the suspension culture was poured out and the biofilm was washed three times with water. The biofilm was stained with 0.1% crystal violet for 20 minutes. The plates were then washed three times with water. OD reading at 540 nm was measured to quantify the biofilm mass at the bottom of the wells. Then 95% ethanol was added to dissolve the dye at the bottom and on the wall and the OD reading at 540 nm was measured to quantify the total biofilm mass. To study the overall effect of the compounds (3.6 mg/mL in 100% ethanol as stock solution), it was added with the inoculation and a time course of biofilm mass was measured. Appropriate amounts of 100% ethanol were added to each sample to eliminate the effect of solvent. Each condition had 3-4 replicates on each plate and was performed over multiple days.

[6] = tested on: E. coli laboratory strain JM109; assay: as above; format: cell-based; conditions: Escherichia coli, JM 109, compared to the controls, read-out: inhibited biofilm formation of the JM109 strain
Protocol: as §2

E. coli UTI89[pCOMGFP] = assay: Bladder colonization (CFU) in infected mice, oral treatment; format: in vivo, Escherichia coli; conditions: C3H/HeN mice, approximately 2 days after inoculation
Protocol: Briefly, E. coli UTI89[pCOMGFP] was prepared after retrieval from frozen stocks by inoculating appropriately in LB medium statically for approximately 20 hours. Cells were harvested and suspended in 1 ml of PBS. Cells were diluted appropriately to achieve approximately 10^7 CFU input into C3H/HeN mice.
Mice were deprived of water for approximately two hours. All mice were anesthetized with isofluorane. Urine was dispelled from the bladders and an inoculum of approximately 10^7 CFU of E. coli were introduced into the bladders as indicated above. Treatments of sulfamethoxazole and trimethoprim (SMZ/TMP), asiatic acid, and combination of SMZ/TMP and asiatic acid was evaluated.
3 mice received asiatic acid by orally at approximately 25 milligram per kilogram twice a day beginning one day prior to infection each day during the experiment. Asiatic acid was prepared in 50% Labrasol®. 5 mice received SMZ/TMP in their drinking water at a concentration of 270 micrograms of SMZ per millilter and 54 micrograms of TMP per milliliter immediately after infection throughout the experiment. 5 mice received asiatic acid and SMZ/TMP in combination dosed according to the individual dosing groups. The experiment was performed for approximately 2 days after inoculation. […] The bladders were removed and colony forming units (CFU) were determined as previously described by Justice, S. et al.

## C[C@H]1[C@H](C)CC[C@]2(C(=O)O)CC[C@]3(C)C(=CC[C@@H]4[C@@]5(C)C[C@@H](O)[C@H](O)[C@@](C)(CO)[C@@H]5CC[C@]43C)[C@H]12 [Asiatic acid]
S. mutans 25175
  inhibition at 40 µg/mL: > 75%
[1]
  concentration at 24 h: ~30000 ng/g
[2]
  average detachment of mature biofilms: approximately 50%
[3]
  MIC: > 64 µg/mL
E. coli (ATCC 25922)
  MIC: > 64 µg/mL
[4]
  MIC: > 64 µg/mL
E. coli UT189[pCOMGFP]; experiment 1: C3H/HeN mice, 40 μg/ml intravesical with 30 min pre-incubation, 10^8 CFU, five hours
  reduction in biofilm pods or IBCs in the bladders of mice: 77%
E. coli UT189[pCOMGFP]; experiment 2: C3H/HeN mice, 40 μg/ml in inoculum, no pre-incubation, 10^7 CFU, six hours
  reduction in large biofilm pods or large IBCs in the bladders of mice: ~60%
[5]; 4 ug/ml
  inhibition at 4 µg/mL: ~10%
[5]; 8 ug/ml
  inhibition at 8 µg/mL: ~15%
[5]; 16 ug/ml
  inhibition at 16 µg/mL: ~50%
[5]; 32 ug/ml
  inhibition at 32 µg/mL: ~90%
[6]; 5 ug/ml
  inhibition at 5 µg/mL: ~70%
[6]; 10 ug/ml
  inhibition at 10 µg/mL: ~80%
E. coli UTI89[pCOMGFP]; combination of SMZ/TMP and asiatic acid
  bladder CFU: 2.3×10^4 CFU
E. coli UTI89[pCOMGFP]; single treatment (asiatic acid 25 mg/kg oral twice a day; SMZ/TMP 270/54 micrograms per ml in drinking water)
  bladder CFU: 2.9×10^3 CFU
